The compounds below were run against T1, human Cot/Tpl2 kinase (Homo sapiens, UniProt P41279) (assay: Tpl2/Cot kinase assay: GST-MEK1 phosphorylation detected by ELISA (DELFIA Eu)). Conditions: 0.4 nM Tpl2, 35 nM GST-MEK1, 50 uM ATP, 1 h at 30° C.
T1 construct: human Cot/Tpl2 kinase construct encoding residues 30-398; 6His (N); made in house; host or cells: Sf9 insect cells, baculovirus system (BD Biosciences)
T1 sequence (P41279 30-398): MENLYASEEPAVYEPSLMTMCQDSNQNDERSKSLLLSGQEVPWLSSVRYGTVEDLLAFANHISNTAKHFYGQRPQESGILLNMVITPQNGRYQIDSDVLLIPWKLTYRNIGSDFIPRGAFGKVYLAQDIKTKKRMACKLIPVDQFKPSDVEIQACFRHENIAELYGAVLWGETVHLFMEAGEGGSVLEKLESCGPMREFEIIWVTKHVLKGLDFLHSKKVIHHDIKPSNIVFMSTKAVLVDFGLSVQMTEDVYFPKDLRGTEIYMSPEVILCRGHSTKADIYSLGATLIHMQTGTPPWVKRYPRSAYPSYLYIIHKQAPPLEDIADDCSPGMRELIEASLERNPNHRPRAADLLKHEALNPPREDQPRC
Type: biochemical
Method in brief: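 Substrate phosphorylation (GST-MEK1 Ser217/221) quantified by DELFIA europium ELISA, yielding IC50 values. Reaction: 1 h at 30° C, pH 7.2 MOPS buffer, 50 uM ATP, 35 nM GST-MEK1, 0.4 nM monomeric His-Tpl2 purified from Sf9 cells, compounds at 1% final DMSO; stopped with EDTA.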
Work on `CCOCCOc1ccc(Br)c(CNc2ccc3ncc(C#N)c(Nc4ccc(F)c(Cl)c4)c3c2)c1` [Example 58, 6-[2-Bromo-5-(2-ethoxy-ethoxy)-benzylamino]-4-(3-chloro-4-fluoro-phenylamino)-quinoline-3-carbonitrile] yielded an IC50 of 1.1 µM. `N#Cc1cnc2ccc(NCc3nccn3CC(=O)NC3CCNCC3)cc2c1Nc1ccc(F)c(Cl)c1` [Example 143, 2-(2-((4-(3-chloro-4-fluorophenylamino)-3-cyanoquinolin-6-ylamino)methyl)-1H-imidazol-1-yl)-N-(piperidin-4-yl)acetamide] showed an IC50 of 0.75 µM. In the case of `CN(C)C(=O)c1cc(NCc2cccnc2)cc2c(Nc3ccc(F)c(Cl)c3)c(C#N)cnc12` [Example 94, 4-(3-chloro-4-fluorophenylamino)-3-cyano-N,N-dimethyl-6-(pyridin-3-ylmethylamino)quinoline-8-carboxamide], the IC50 is reported as 0.53 µM. `COc1c(C)c[n+]([O-])c(CNc2cc(Cl)c3ncc(C#N)c(Nc4ccc(F)c(Cl)c4)c3c2)c1C` [Example 277, 8-Chloro-4-[(3-chloro-4-fluorophenyl)amino]-6-{[(4-methoxy-3,5-dimethyl-1-oxidopyridin-2-yl)methyl]amino}quinoline-3-carbonitrile] gave an IC50 of 0.066 µM. With `N#Cc1cnc2c(Br)cc(NCc3cccnc3)cc2c1Nc1cccc(Cl)c1` [Example 70, 8-bromo-4-(3-chlorophenylamino)-6-(pyridin-3-ylmethylamino)quinoline-3-carbonitrile] the IC50 was 0.036 µM. For `N#Cc1cnc2ccc(NCc3ccc(S(N)(=O)=O)cc3)cc2c1Nc1ccc(F)c(Cl)c1` [Example 121, 4-((4-(3-chloro-4-fluorophenylamino)-3-cyanoquinolin-6-ylamino)methyl)benzenesulfonamide], the IC50 was 0.114 µM. In the case of `CC(C)NC(=O)c1cc(NCc2cccnc2)cc2c(Nc3ccc(F)c(Cl)c3)c(C#N)cnc12` [Example 93, 4-(3-chloro-4-fluorophenylamino)-3-cyano-N-isopropyl-6-(pyridin-3-ylmethylamino)quinoline-8-carboxamide], the IC50 is reported as greater than 40 µM. Work on `Cc1ncc(CNc2cc(Br)c3ncc(C#N)c(Nc4ccc(F)c(Cl)c4)c3c2)[nH]1` [Example 105, 8-bromo-4-(3-chloro-4-fluorophenylamino)-6-((2-methyl-1H-imidazol-5-yl)methylamino)quinoline-3-carbonitrile] yielded an IC50 of 0.17 µM. In the case of `Cc1c(CNc2cc(Br)c3ncc(C#N)c(Nc4ccc(F)c(Cl)c4)c3c2)ncn1C` [Example 113, 8-bromo-4-(3-chloro-4-fluorophenylamino)-6-((1,5-dimethyl-1H-imidazol-4-yl)methylamino)quinoline-3-carbonitrile], the IC50 is reported as 0.01 µM. With `Cn1c(CNc2ccc3ncc(C#N)c(Nc4ccc(F)c(Cl)c4)c3c2)nc2ccccc21` [Example 7, 4-(3-Chloro-4-fluoro-phenylamino)-6-[(1-methyl-1H-benzoimidazol-2-ylmethyl)-amino]-quinoline-3-carbonitrile] the IC50 was 0.018 µM. For `COc1ncc(CNc2cc(C(F)(F)F)c3ncc(C#N)c(Nc4ccc(F)c(Cl)c4)c3c2)c(OC)n1` [Example 241], the IC50 was greater than 40 µM. For `CCc1nc(C)c(CNc2ccc3ncc(C#N)c(Nc4ccc(F)c(Cl)c4)c3c2)[nH]1` [Example 23, 4-(3-Chloro-4-fluoro-phenylamino)-6-[(2-ethyl-5-methyl-3H-imidazol-4-ylmethyl)-amino]-quinoline-3-carbonitrile], the IC50 was 0.64 µM.

Same assay, conditions: Table 2; Tpl2/Cot kinase, GST-MEK1 substrate, 50 uM ATP
`N#Cc1cnc2ccc(NCc3cnc[nH]3)cc2c1NC1CCCC1` [Example 417] showed an IC50 of 0.3 µM. For `N#Cc1cnc2ccc(NCc3ccc4c(c3)OCO4)cc2c1Nc1cccc(Cl)c1` [Example 346], the IC50 was 0.6 µM. `N#Cc1cnc2c(Br)cc(NCc3cncn3CCN3CCOCC3)cc2c1Nc1ccc(F)c(Cl)c1` [Example 482] showed an IC50 of 0.16 µM. `N#Cc1cnc2c(Br)cc(NCc3cn(CCCN4CCNCC4)nn3)cc2c1Nc1ccc(F)c(Cl)c1` [Example 596] showed an IC50 of 0.11 µM. `CC(C)(CNc1cc(Cl)c2ncc(C#N)c(Nc3ccc(F)c(Cl)c3)c2c1)N1CCOCC1` [Example 450] showed an IC50 of 2.4 µM. `N#Cc1cnc2ccc(NCCN3CCOCC3)cc2c1NC1CCCC1` [Example 419] showed an IC50 of 19.7 µM. With `CC(C)(C)Nc1c(C#N)cnc2ccc(NCc3ccc(S(N)(=O)=O)cc3)cc12` [Example 408] the IC50 was 21.9 µM. Compound `CC(c1ccccc1)n1cc(CNc2cc(Cl)c3ncc(C#N)c(Nc4ccc(F)c(Cl)c4)c3c2)nn1` (stereo not shown) [Example 586] has an IC50 of 0.096 µM. Work on `N#Cc1cnc2c(Br)cc(NCc3cn(CCCN4CCCCC4)nn3)cc2c1Nc1ccc(F)c(Cl)c1` [Example 538] yielded an IC50 of 0.0034 µM. `N#Cc1cnc2ccc(N)cc2c1NC1CCCC1` [Example 402] gave an IC50 greater than 40 µM. For `Cc1ncn(C)c1CNc1ccc2ncc(C#N)c(Nc3ccc(F)c(Cl)c3)c2c1` [Example 388], the IC50 was 0.2 µM.

Same assay, conditions: Tpl2/Cot kinase, GST-MEK1 substrate, 50 uM ATP
In the case of `CN(C)CC(c1ccccc1)n1cc(CNc2cc(Br)c3ncc(C#N)c(Nc4ccc(F)c(Cl)c4)c3c2)nn1` (stereo not shown) [Example 739], the IC50 is reported as 0.093 µM. Work on `CCN1CCC(CCn2cc(CNc3cc(Br)c4ncc(C#N)c(Nc5ccc(F)c(Cl)c5)c4c3)nn2)CC1` [Example 737] yielded an IC50 of 0.064 µM. For `N#Cc1cnc2c(Cl)cc(NCC(=O)NCCN3CCOCC3)cc2c1Nc1ccc(F)c(Cl)c1` [Example 777], the IC50 was 0.53 µM. Compound `CCN1CCC(Cn2cc(CNc3cc(Cl)c4ncc(C#N)c(Nc5ccc(F)c(Cl)c5)c4c3)nn2)CC1` [Example 826] has an IC50 of 0.035 µM. With `N#Cc1cnc2c(Br)cc(NCc3cc([C@@H]4CCCN4)n[nH]3)cc2c1Nc1ccc(F)c(Cl)c1` [Example 724] the IC50 was 0.33 µM. Work on `CCN1CC(CCn2cc(CNc3cc(Cl)c4ncc(C#N)c(Nc5ccc(F)c(Cl)c5)c4c3)nn2)N(c2ccccc2)C1=S` (stereo not shown) [Example 792] yielded an IC50 of 0.13 µM. `N#Cc1cnc2c(Cl)cc(NCc3cn(CC(=O)N4CCCCCCC4)nn3)cc2c1Nc1ccc(F)c(Cl)c1` [Example 815] showed an IC50 of 0.0053 µM. With `CN(CCn1cc(CN(Cc2cn(CCN(C)C(=O)OC(C)(C)C)nn2)c2cc(Br)c3ncc(C#N)c(Nc4ccc(F)c(Cl)c4)c3c2)nn1)C(=O)OC(C)(C)C` [Example 677] the IC50 was 4.7 µM. Compound `N#Cc1cnc2c(Br)cc(NCc3cn(Cc4cncnc4)nn3)cc2c1Nc1ccc(F)c(Cl)c1` [Example 880] has an IC50 of 0.0025 µM. `CN(C)CCNCC(=O)N1CCCC(CNc2cc(Cl)c3ncc(C#N)c(Nc4ccc(F)c(Cl)c4)c3c2)C1` (stereo not shown) [Example 920] was tested, and the IC50 was 0.86 µM. With `CSCCn1cc(CNc2cc(Br)c3ncc(C#N)c(Nc4ccc(F)c(Cl)c4)c3c2)nn1` [Example 682] the IC50 was 0.082 µM. Work on `N#Cc1cnc2c(Br)cc(NCc3cn(COCc4ccccc4)nn3)cc2c1Nc1ccc(F)c(Cl)c1` [Example 805] yielded an IC50 greater than 3 µM.

Same assay, conditions: Tpl2/Cot kinase, GST-MEK1 substrate, 50 uM ATP, 1 h at 30° C.; Table 2
With `N#Cc1cnc2c(Cl)cc(NCc3cn(CCN4CCCCC4)nn3)cc2c1NC1CCC1` [Example 954] the IC50 was 0.52 µM. For `CC(C)(C)OC(=O)N1CCCC(n2cc(CNc3cc(Cl)c4ncc(C#N)c(Nc5ccc(F)c(Cl)c5)c4c3)nn2)CC1` (stereo not shown) [Example 1006], the IC50 was 0.24 µM. `N#Cc1cnc2c(Cl)cc(NCc3cn(CCN4CCN(CC5CC5)CC4)nn3)cc2c1Nc1ccc(F)c(Cl)c1` [Example 966] gave an IC50 of 0.15 µM. For `CCN1CCC(c2cc(CNc3cc(Br)c4ncc(C#N)c(Nc5ccc(F)c(Cl)c5)c4c3)[nH]n2)CC1` [Example 1045], the IC50 was 0.61 µM. For `CN(C)C(=O)N1CCC(n2cc(CNc3cc(Cl)c4ncc(C#N)c(Nc5ccc(F)c(Cl)c5)c4c3)nn2)CC1` [Example 929], the IC50 was 0.007 µM.

Source: patent US20060264460A1 (Wyeth, priority 2005, published 2006)
